From publication doi:10.1101/2024.08.19.608619, “Discovery of potent SARS-CoV-2 nsp3 macrodomain inhibitors uncovers lack of translation to cellular antiviral response” (bioRxiv, 2024)
Values joined by “and” are separate entries in the source; they are usually repeats but may differ in a detail not shown here. Equal values may be shown once.

What was measured:
Lck kinase (h) = target: T1, Lck kinase (h) (Homo sapiens, UniProt P06239); test: In vitro CEREP profiling, Lck kinase (h); type: biochemical; conditions: test compound concentration 10 uM; Enzyme and Cell-based assays
T1 construct: purchased Eurofins Cerep (SafetyScreen44), recognised from the panel format
T1 sequence (P06239 whole entry): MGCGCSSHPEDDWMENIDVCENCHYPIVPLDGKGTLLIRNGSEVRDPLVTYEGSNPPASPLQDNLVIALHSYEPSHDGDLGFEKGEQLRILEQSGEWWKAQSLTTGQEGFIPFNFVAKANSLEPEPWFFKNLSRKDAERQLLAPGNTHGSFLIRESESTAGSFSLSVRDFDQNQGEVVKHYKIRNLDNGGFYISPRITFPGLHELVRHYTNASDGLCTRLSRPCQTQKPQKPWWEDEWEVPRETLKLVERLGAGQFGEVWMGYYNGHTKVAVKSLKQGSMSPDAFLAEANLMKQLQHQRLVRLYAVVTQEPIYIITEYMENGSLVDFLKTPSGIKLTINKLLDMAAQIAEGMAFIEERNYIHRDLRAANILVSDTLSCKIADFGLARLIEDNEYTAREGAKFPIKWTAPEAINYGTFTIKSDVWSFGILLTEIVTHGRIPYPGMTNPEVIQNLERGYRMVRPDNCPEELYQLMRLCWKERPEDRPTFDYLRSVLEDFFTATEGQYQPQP
Excerpt: (§1) Supplement media-1.zip/Safety_Panel_Profile.csv, table | column: perc_inhibition

MERS-CoV = test: microbe, parasite or virus in culture; type: cell-based; conditions: Vero E6/TMPRSS2 MERS-CoV antiviral effect with P-gp inhibitor
GR (h) = target: T2, GR (h) (Homo sapiens, UniProt P04150); test: In vitro CEREP profiling, GR (h) (agonist radioligand); type: binding; conditions: test compound concentration 10 uM
T2 construct: purchased Eurofins Cerep (SafetyScreen44), recognised from the panel format
T2 sequence (P04150 1-777): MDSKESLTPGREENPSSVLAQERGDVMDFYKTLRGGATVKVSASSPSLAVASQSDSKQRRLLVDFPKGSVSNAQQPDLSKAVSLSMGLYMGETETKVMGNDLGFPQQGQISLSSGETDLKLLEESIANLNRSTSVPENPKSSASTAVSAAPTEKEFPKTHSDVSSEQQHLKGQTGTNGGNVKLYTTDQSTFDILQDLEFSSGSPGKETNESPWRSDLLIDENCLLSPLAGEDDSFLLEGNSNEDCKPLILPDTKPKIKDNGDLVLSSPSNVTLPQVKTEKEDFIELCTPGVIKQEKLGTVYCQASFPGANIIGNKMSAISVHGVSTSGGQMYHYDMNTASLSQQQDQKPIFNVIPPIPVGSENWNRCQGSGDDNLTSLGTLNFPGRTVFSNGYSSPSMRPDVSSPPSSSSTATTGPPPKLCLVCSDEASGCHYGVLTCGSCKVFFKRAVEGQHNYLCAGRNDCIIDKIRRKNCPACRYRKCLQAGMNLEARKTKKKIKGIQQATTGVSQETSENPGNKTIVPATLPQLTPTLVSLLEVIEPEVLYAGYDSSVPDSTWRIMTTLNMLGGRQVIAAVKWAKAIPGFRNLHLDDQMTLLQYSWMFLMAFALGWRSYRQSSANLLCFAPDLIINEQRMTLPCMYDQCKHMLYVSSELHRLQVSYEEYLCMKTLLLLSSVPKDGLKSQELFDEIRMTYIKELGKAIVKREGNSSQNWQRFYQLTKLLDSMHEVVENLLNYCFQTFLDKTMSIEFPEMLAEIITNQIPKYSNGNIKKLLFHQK
Excerpt: as §1

COX1(h) = target: T3, COX1(h) (Homo sapiens, UniProt P23219); test: In vitro CEREP profiling, COX1(h); type: biochemical; conditions: test compound concentration 10 uM; Enzyme and Cell-based assays
T3 construct: purchased Eurofins Cerep (SafetyScreen44), recognised from the panel format
Excerpt: as §1

acetylcholinesterase (h) = target: T4, acetylcholinesterase (h) (Homo sapiens, UniProt P22303); test: In vitro CEREP profiling, acetylcholinesterase (h); type: biochemical; conditions: test compound concentration 10 uM; Enzyme and Cell-based assays
T4 construct: purchased Eurofins Cerep (SafetyScreen44), recognised from the panel format
T4 sequence (P22303 32-614): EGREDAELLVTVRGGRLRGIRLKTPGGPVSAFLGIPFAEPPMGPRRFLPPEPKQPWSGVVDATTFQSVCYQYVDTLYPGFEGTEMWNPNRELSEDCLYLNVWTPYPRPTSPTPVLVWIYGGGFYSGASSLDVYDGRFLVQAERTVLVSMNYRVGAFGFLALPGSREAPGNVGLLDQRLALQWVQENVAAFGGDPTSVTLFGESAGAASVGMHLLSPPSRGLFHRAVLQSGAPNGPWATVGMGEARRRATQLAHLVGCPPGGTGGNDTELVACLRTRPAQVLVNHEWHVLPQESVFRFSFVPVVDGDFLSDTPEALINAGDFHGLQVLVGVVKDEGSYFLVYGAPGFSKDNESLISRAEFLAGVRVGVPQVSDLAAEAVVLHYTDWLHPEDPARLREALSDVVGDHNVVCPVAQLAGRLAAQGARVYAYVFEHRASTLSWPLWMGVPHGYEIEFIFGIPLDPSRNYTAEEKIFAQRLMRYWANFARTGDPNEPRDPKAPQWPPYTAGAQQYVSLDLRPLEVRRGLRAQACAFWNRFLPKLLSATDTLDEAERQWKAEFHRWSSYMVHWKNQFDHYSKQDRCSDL
Excerpt: as §1

5-HT2B (h) = target: T5, 5-HT2B (h) (Homo sapiens, UniProt P41595); test: In vitro CEREP profiling, 5-HT2B (h) (agonist radioligand); type: binding; conditions: test compound concentration 10 uM
T5 construct: purchased Eurofins Cerep (SafetyScreen44), recognised from the panel format
Excerpt: as §1

dopamine transporter (h) = target: T6, dopamine transporter (h) (Homo sapiens, UniProt Q01959); test: In vitro CEREP profiling, dopamine transporter (h) (antagonist radioligand); type: binding; conditions: test compound concentration 10 uM
T6 construct: purchased Eurofins Cerep (SafetyScreen44), recognised from the panel format
T6 sequence (Q01959 whole entry): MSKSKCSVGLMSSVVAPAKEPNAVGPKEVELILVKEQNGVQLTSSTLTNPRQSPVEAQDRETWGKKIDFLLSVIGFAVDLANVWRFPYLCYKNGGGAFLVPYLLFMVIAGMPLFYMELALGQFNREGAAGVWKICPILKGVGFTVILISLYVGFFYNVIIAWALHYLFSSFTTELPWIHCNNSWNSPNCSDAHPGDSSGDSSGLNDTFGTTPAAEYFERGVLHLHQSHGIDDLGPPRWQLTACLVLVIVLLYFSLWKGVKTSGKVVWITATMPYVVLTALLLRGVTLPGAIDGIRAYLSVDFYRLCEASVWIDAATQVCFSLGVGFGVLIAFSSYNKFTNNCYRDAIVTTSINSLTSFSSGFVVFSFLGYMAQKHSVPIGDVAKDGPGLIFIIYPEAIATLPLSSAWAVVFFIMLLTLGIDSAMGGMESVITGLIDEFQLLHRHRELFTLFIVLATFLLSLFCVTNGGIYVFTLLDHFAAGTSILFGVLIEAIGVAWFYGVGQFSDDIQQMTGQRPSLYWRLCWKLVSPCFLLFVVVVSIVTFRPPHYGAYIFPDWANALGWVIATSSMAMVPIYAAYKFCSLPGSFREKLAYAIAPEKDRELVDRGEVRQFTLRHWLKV
Excerpt: as §1

MAO-A = target: T7, MAO-A (Rattus norvegicus, UniProt P21396); test: In vitro CEREP profiling, MAO-A (antagonist radioligand); type: binding; conditions: test compound concentration 10 uM
T7 construct: purchased Eurofins Cerep (SafetyScreen44), recognised from the panel format
T7 sequence (P21396 1-526): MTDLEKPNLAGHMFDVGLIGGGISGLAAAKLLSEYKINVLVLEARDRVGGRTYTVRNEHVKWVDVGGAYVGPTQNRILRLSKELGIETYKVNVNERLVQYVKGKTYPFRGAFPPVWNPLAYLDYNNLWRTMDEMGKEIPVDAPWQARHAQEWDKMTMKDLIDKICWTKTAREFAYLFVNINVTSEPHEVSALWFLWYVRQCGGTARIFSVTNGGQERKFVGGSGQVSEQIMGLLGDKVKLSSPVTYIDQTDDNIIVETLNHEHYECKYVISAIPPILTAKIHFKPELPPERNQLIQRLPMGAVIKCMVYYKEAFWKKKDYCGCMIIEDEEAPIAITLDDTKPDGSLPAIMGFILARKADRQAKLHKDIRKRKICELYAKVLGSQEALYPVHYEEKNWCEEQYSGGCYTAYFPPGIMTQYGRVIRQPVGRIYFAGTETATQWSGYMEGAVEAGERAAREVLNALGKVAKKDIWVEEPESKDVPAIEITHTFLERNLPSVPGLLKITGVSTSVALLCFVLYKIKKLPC
Excerpt: as §1

[1] = In vitro mouse hepatocyte stability; type: in vitro ADME
Excerpt: Supplement media-1.zip/Hepatocyte_Stability.csv, table | column: clint; t_half

[2] = target: T8, norepinephrine transporter (h) (Homo sapiens, UniProt P23975); test: In vitro CEREP profiling, norepinephrine transporter (h) (antagonist radioligand); type: binding; conditions: test compound concentration 10 uM
T8 construct: purchased Eurofins Cerep (SafetyScreen44), recognised from the panel format
T8 sequence (P23975 whole entry): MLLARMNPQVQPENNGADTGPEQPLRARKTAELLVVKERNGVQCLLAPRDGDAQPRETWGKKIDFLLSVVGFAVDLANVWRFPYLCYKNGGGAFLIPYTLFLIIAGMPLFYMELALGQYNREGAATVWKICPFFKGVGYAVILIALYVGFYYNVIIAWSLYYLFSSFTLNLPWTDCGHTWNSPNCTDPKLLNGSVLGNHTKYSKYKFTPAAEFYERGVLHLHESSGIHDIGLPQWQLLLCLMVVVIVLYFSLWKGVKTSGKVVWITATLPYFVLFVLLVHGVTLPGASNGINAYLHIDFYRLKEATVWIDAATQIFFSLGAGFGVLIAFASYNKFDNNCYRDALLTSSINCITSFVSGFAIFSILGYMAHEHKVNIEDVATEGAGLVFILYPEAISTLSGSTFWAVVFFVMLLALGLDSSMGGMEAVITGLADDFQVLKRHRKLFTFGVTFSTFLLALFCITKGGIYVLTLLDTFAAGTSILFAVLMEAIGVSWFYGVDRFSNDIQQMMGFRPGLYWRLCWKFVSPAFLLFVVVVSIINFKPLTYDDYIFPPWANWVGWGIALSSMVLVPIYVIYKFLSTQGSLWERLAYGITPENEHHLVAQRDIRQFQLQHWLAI
Excerpt: as §1

H2 (h) = target: T9, H2 (h) (Homo sapiens, UniProt P25021); test: In vitro CEREP profiling, H2 (h) (antagonist radioligand); type: binding; conditions: test compound concentration 10 uM
T9 construct: purchased Eurofins Cerep (SafetyScreen44), recognised from the panel format
Excerpt: as §1

5-HT2A (h) = target: T10, 5-HT2A (h) (Homo sapiens, UniProt P28223); test: In vitro CEREP profiling, 5-HT2A (h) (agonist radioligand); type: binding; conditions: test compound concentration 10 uM
T10 construct: purchased Eurofins Cerep (SafetyScreen44), recognised from the panel format
T10 sequence (P28223 whole entry): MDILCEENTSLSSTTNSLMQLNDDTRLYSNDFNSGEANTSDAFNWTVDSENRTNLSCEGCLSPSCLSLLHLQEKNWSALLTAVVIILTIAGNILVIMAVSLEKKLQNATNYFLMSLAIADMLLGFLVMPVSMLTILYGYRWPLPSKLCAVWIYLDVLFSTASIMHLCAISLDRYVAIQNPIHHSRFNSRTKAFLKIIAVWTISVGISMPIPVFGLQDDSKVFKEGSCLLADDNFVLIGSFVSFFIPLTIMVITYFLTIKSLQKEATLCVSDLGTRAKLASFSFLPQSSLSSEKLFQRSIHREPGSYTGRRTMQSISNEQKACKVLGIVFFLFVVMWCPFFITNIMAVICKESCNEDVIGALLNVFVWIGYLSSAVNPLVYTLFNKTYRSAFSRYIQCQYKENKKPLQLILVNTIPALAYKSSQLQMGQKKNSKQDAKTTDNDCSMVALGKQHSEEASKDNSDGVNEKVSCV
Excerpt: as §1

Vero E6/TMPRSS2 = Vero E6/TMPRSS2 cytotoxicity with P-gp inhibitor; type: cell-based
Excerpt: Supplement media-1.zip/Cytotoxicity.csv, table | column: cc10; cc50; perc_min_measured; perc_max_measured

PDE4D2 (h) = target: T11, PDE4D2 (h) (Homo sapiens, UniProt Q08499); test: In vitro CEREP profiling, PDE4D2 (h); type: biochemical; conditions: test compound concentration 10 uM; Enzyme and Cell-based assays
T11 construct: purchased Eurofins Cerep (SafetyScreen44), recognised from the panel format
T11 sequence (Q08499 303-809): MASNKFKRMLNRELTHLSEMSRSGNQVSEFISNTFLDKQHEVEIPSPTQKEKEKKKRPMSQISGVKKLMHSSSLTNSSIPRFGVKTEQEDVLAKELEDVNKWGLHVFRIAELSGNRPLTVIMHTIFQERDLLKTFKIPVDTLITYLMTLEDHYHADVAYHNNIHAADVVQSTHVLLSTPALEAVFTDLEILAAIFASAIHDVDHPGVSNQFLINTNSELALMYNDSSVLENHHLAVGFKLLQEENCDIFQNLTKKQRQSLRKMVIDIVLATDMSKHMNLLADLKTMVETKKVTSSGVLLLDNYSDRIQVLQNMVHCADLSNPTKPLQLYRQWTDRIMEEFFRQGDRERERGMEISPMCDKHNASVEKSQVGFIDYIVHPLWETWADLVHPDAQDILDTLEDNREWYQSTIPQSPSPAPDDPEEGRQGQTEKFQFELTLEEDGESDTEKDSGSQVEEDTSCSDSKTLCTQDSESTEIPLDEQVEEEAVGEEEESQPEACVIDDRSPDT
Excerpt: as §1

[3] = target: T12, Potassium Channel hERG (human) (Homo sapiens, UniProt Q12809); test: In vitro CEREP profiling, Potassium Channel hERG (human)- [3H] Dofetilide; type: binding; conditions: test compound concentration 10 uM
T12 construct: purchased Eurofins Cerep (SafetyScreen44), recognised from the panel format
T12 sequence (Q12809 whole entry): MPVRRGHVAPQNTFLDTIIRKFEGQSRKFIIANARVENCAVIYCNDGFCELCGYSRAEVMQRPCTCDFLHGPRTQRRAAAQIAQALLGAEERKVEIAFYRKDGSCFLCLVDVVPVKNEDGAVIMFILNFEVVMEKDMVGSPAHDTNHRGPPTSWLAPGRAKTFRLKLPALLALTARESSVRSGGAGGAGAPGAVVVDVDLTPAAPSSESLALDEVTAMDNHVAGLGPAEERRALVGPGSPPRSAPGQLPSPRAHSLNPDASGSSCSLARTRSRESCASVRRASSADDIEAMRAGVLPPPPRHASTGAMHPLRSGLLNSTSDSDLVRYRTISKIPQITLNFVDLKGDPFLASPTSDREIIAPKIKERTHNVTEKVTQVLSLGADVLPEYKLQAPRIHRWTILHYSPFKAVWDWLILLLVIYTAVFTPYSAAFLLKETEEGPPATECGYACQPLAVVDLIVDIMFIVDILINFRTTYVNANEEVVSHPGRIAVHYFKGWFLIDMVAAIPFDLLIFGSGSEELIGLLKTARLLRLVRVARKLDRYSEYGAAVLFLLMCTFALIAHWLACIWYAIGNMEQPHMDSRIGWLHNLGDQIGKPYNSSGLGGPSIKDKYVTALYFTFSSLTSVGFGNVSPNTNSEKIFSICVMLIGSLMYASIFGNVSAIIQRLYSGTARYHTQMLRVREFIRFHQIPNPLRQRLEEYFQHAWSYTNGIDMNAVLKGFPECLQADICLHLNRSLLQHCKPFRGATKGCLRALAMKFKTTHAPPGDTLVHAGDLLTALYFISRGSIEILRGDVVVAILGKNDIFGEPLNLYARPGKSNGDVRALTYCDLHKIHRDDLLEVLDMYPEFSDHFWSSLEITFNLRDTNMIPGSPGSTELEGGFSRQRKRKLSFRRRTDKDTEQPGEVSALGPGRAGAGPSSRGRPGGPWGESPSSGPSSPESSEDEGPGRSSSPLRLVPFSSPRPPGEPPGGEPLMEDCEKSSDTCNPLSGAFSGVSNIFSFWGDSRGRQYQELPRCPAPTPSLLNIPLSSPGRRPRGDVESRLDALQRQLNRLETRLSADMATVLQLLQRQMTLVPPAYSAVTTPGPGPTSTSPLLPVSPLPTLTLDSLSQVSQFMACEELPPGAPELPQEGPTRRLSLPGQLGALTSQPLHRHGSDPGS
Excerpt: as §1

delta (DOP) (h) = target: T13, delta (DOP) (h) (Homo sapiens, UniProt P41143); test: In vitro CEREP profiling, delta (DOP) (h) (agonist radioligand); type: binding; conditions: test compound concentration 10 uM
T13 construct: purchased Eurofins Cerep (SafetyScreen44), recognised from the panel format
T13 sequence (P41143 whole entry): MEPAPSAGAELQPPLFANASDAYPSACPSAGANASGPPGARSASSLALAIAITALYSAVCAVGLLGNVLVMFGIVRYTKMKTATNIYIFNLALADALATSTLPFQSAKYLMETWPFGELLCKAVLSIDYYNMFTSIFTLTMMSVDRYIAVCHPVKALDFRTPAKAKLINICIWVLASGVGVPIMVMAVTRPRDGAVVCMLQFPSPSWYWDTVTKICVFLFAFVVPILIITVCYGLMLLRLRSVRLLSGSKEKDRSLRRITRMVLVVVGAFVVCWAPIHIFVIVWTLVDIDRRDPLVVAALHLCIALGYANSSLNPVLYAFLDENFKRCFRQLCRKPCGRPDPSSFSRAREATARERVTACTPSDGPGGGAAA
Excerpt: as §1

5-HT transporter (h) = target: T14, 5-HT transporter (h) (Homo sapiens, UniProt P31645); test: In vitro CEREP profiling, 5-HT transporter (h) (antagonist radioligand); conditions: test compound concentration 10 uM
T14 construct: purchased Eurofins Cerep (SafetyScreen44), recognised from the panel format
Excerpt: as §1

Row | SMILES | perc_inhibition: % inhibition of control enzyme activity, Lck kinase (h) (Lck kinase (h)) | perc_inhibition (% inhibition of the binding of a ligand specific for each target) (GR (h)) | perc_inhibition: % inhibition of control enzyme activity, COX1(h) (COX1(h)) | perc_inhibition: % inhibition of control enzyme activity, acetylcholinesterase (h) (acetylcholinesterase (h)) | perc_inhibition (% inhibition of the binding of a ligand specific for each target) (5-HT2B (h)) | perc_inhibition (% inhibition of the binding of a ligand specific for each target) (dopamine transporter (h)) | perc_inhibition (% inhibition of the binding of a ligand specific for each target) (MAO-A) | clint [1] | t_half [1] | perc_inhibition (% inhibition of the binding of a ligand specific for each target) [2] | perc_inhibition (% inhibition of the binding of a ligand specific for each target) (H2 (h)) | perc_inhibition (% inhibition of the binding of a ligand specific for each target) (5-HT2A (h)) | perc_inhibition: % inhibition of control enzyme activity, PDE4D2 (h) (PDE4D2 (h)) | perc_inhibition (% inhibition of the binding of a ligand specific for each target) [3] | perc_inhibition (% inhibition of the binding of a ligand specific for each target) (delta (DOP) (h)) | other results
1 | C[C@H](C(=O)O)[C@@H](NC(=O)c1ncnc2[nH]ccc12)c1ccc(Br)cc1 [ASAP-0014722] | 4% | 3% | 14% | 12% | -4% | 4% | -1% | 4.35 uL/min/1E6 cells | 159.0 min | -6% | -21% | 1% | 30% | 14% | -24% | perc_max_measured (MERS-CoV; maximum measured response of dose series): 106.305% and 132.117%; perc_min_measured (MERS-CoV; minimum measured response of dose series): 63.318% and 92.538%; EC50 (MERS-CoV; read-out: ec50): > 5 µM; EC90 (MERS-CoV; read-out: ec90): > 5 µM; CC50 (Vero E6/TMPRSS2): > 5 µM; cc10 (Vero E6/TMPRSS2): > 5.0 µM; perc_max_measured (Vero E6/TMPRSS2; highest measured response of the dose series): 112.113%; perc_min_measured (Vero E6/TMPRSS2; lowest measured response of the dose series): 82.421%
2 | Cn1ncc(-c2cc3c(N[C@@H](c4ccc5c(n4)OCCO5)C(C)(C)C)ncnc3[nH]2)c1C#N [ASAP-0011221] | 47% | 28% | -14% | 14% | -5% | 50% | 10% | 292.0 uL/min/1E6 cells | 2.37 min | 27% | -10% | -2% | 20% | 36% | 15% | perc_inhibition: % inhibition of the binding of a ligand specific for each target, 5-HT transporter (h) (antagonist radioligand) (5-HT transporter (h)): 2%
